The source of these data is patent US6872750B2, “Modulating angiogenesis” (Regents of the University of California, priority 2000, dated 2005).

Assay [1] has as its system Kuz. Briefly: Inhibition of angiogenesis by Kuz inhibitors in several model systems. Here is the method: The presence of Kuz and its activity is assayed by ELISA and Kuz-specific protease activity prior to or subsequent to the measure of angiogenesis.
Assay [2] has as its system HUVEC. Briefly: HUVEC formation of vascular-like structures on Matrigel. To be noted: HUVEC on growth factor-reduced Matrigel, 8-12 h. It is filed as cell-based, human. Here is the method:
The formation of vascular-like structures by HUVEC is assessed on the basement membrane matrix preparation, growth factor-reduced Matrigel (Becton Dickinson, Bedford, Mass.), as described in Kureishi Y, et al. Nat Med 2000 September;6(9):1004-10. Two-well chamber slides are coated with Matrigel (10 mg/ml) according to the manufacturer's instructions. HUVEC are seeded on coated plates at 4-5×10^4 cells/well in EBM and incubated at 37° C. for 60 minutes. The media are supplemented with the agents (metalloprotease domain of human Kuz, Kuz inhibitors, Kuz antibodies, VEGF, etc.) and incubated at 37° C. for 8-12 h. Tube formation image is observed using an inverted phase contrast microscope (Nikon Diaphot). Images are captured with a video graphic system (DEI-750 CE Digital Output Camera, Optronics, Goleta, Calif.). The degree of tube formation is quantified by measuring the length of tubes in random fields from each well using the National Institutes of Health (NIH) Image Program.

As for `CNC(=O)[C@H](Cc1c[nH]c2ccccc12)NC(=O)[C@@H](CC(=O)NO)CC(C)C` [GM6001, NHOHCOCH2CH(1-Bu)CO-Trp-NHMe], the inhibition of angiogenesis entry in assay [1] is on record as “inhibit angiogenesis”.
On to `CC(C)CC(CC(=O)NO)C(=O)N[C@@H](C)C(=O)NCCN` (stereo partly drawn) [IC-3, N-{D,L-[2-(hydroxyaminocarbonyl)methyl]-4-methyl-pentanoyl}-L-alanine, 2-aminoethyl amide], for which, in assay [1], the inhibition of angiogenesis result is “inhibit angiogenesis”.
Still for that read-out and setting: in the case of “TIMP-1: natural MMP inhibitor, tissue inhibitor of MMPs” it was “inhibit angiogenesis”.
With VEGF, the “formation of capillary-like tubes” value in assay [2] was “promotes the formation of capillary-like tubes”.
